Laboratory results as given in patent publication US20240409899A1, “PRODUCTION OF HEPATOCYTES” (Cambridge Enterprise Limited (GB/GB), priority 2021, published 2024).

Tests used:
[1] = tested on: FoP-Heps; experiment: CYP3A4 activity (P450 Glo) in FoP-Heps treated with exogenous nuclear receptor ligands; conditions: for effect on CYP3A4 activity: vs untreated control, FoP-Heps with 3TFs plus the ligand's nuclear receptor (AR for testosterone, RORc for desmosterol)
Procedure: hPSCs were dissociated into single cells following incubation with StemPro Accutase (Thermo Fisher) for 5 minutes at 37° C. and seeded at a density of 40-50.000 cells/cm2 in E8 medium supplemented with 10 μM ROCK Inhibitor Y-27632 (Selleckchem). E8 medium was replenished the following day. Following 48 h, initial induction of the transgenes was achieved by incubation in E6 medium (E8 without growth factors) supplemented with […] doxycycline (dox) for 24 h. Cells were then maintained in Hepatozyme complete medium supplemented with […] dox for the remaining duration of the protocol. Medium was replenished every day for the next 4 days, and every other day here after. For specific experiments, cell lines were treated with 100 nM of desmosterol, testosterone or […] (E2) from day 2 of forward programming. All ligands were purchased from Sigma-Aldrich and reconstituted in ethanol. For 3D cultures, forward programmed cells were embedded in Matrigel Growth Factor Reduced Basement Membrane Matrix, Phenol Red-free (Corning) at day 15 or day 20 and cultured for 5 days or 10 days, respectively. Cells were dissociated with Hank's based cell dissociation buffer (Gibco) for 20 minutes at 37° C., resuspended in Matrigel and seeded in 40-50 μL domes in Hepatozyme complete medium supplemented with […] dox.
Measurement of CYP3A4 enzymatic activity was performed using the P450 Glo kit (Promega). Cells were incubate with 1:1000 luciferin-IPA in Hepatozyme complete for 1 h at 37° C. Supernatant was mixed with detection reagent in a 1:1 ratio and incubated at RT for 20 minutes in Greiner white 96 well microplates (Sigma Aldrich). Luminescence was measured in triplicate on a GloMax plate reader. Hepatozyme complete medium was used as background control. Relative light units were normalised for background, volume and average total number of cells obtained after differentiation.

[2] = tested on: FoP-Heps; experiment: APAP toxicity, cell viability (Presto Blue) in 3D FoP-Heps; assay type: cell-based, human; conditions: 25 mM for 48 h (day 18 to day 20), 3D cultures; 4TF FoP-Heps; normalised against untreated
Procedure: The hepatotoxicity of acetaminophen (APAP) was tested by incubating forward programmed cells cultured in 3D from day 15 in Hepatozyme complete medium supplemented with 25 mM acetaminophen (R&D) for 48 h hours (day 18 to day 20) after which cell viability was determined.
(§1) Cell viability was determined by incubating cells with 1:10 Presto Blue reagent (Invitrogen) in Hepatozyme complete medium at 37° C. for 4 hours. Fluorescence was measured using the EnVision plate reader with an excitation emission of 560 nm/590 nm.

[3] = tested on: FoP-Heps; experiment: Fatty acid treatment, cell viability (Presto Blue) in 3D FoP-Heps; assay type: cell-based, human; conditions: 0.25 mM conjugated with BSA, 7 days, 3D culture from day 20; 4TF FoP-Heps; normalised against BSA control
Procedure: (§2) Forward programmed cells were embedded in 3D from day 20 and cultured for 7 days in Hepatozyme complete medium supplemented with either BSA (control), or oleic acid (0.25 mM) or palmitic acid (0.25 mM) conjugated with BSA. Intracellular lipid accumulation was detected by incubating cells with 1 μl/ml Bodipy (Thermo scientific) for 30 minutes, followed by DAPI (Hoechst) diluted 1:10.000 in PBS for 30 minutes and imaged on a Zeiss LSM 700 confocal microscope.
as §1

[4] = tested on: FoP-Heps; experiment: Fatty acid treatment, intracellular lipid accumulation (BODIPY staining) in 3D FoP-Heps; assay type: cell-based, human; conditions: 0.25 mM conjugated with BSA, 7 days, 3D culture from day 20; 4TF eFoP- and iFoP-Heps; BSA control
Procedure: as §2

[5] = 100 nM ligand from day 2, day 20 of forward programming

With β-estradiol [p3-estradiol] the “increase in CYP3A4 activity” value ([1]; 100 nM ligand from day 2, day 20 of forward programming, normalised to untreated control, FoP-Heps with 3TFs plus the ligand's nuclear receptor (ERα)) was 3 fold and the “increase in CYP3A4 activity in 3TFs FoP-Heps” value ([1]; 3TFs FoP-Heps without overexpressed nuclear receptor, 100 nM ligand) was “not observed”.

In the case of `C[C@]12CC[C@H]3[C@@H](CCC4=CC(=O)CC[C@@]43C)[C@@H]1CC[C@@H]2O` [testosterone], the “effect on CYP3A4 activity” value [1, 5] was “significantly decreased”.

In the case of `CC(C)=CCC[C@@H](C)[C@H]1CC[C@H]2[C@@H]3CC=C4C[C@@H](O)CC[C@]4(C)[C@H]3CC[C@]12C` [desmosterol], the “effect on CYP3A4 activity” value [1, 5] was “no effect”.

`CC(=O)Nc1ccc(O)cc1` [acetaminophen] was tested, and the “reduction in cell viability” value [2] was 50%.

`CCCCCCCCCCCCCCCC(=O)O` [PA, palmitic acid] was tested, and the “cell viability (lipotoxicity)” value [3] was “reduction in cell viability”.

With `CCCCCCCC/C=C\CCCCCCCC(=O)O` [OA, oleic acid] the “accumulation of lipids (BODIPY staining)” value [4] was “strong accumulation of lipids”.
